Results as given in patent US8802663B2, “Pyrazole oxadiazole derivatives as S1P1 agonists” (Merck Serono SA, priority 2009, dated 2014).
Where a name gives a salt, the structure may show the parent alone.

Target: T1, S1P1 (Homo sapiens (Human), UniProt P21453)
Experiment: 35S-GTPγS binding, membranes from CHO cells expressing S1P1
Type: biochemical
Conditions: CHO cell membranes
Experimental: Cells were suspended in 50 mM TRIS, pH 7.4, 2 mM EDTA, 250 mM Sucrose (buffer A) and 1× Complete protease inhibitor cocktail (Roche), and disrupted at 4° C. by N2 decompression using a cell disruption bomb (Parr Instrument). Following centrifugation at 1000 RPM for 10 min at 4° C., the supernatant was suspended in buffer A and centrifuged again at 19000 RPM for 60 min at 4° C. The pellet was then suspended in 10 mM HEPES, pH 7.4, 1 mM EDTA, 250 mM Sucrose (Buffer B), and 1× Complete EDTA-free protease inhibitor cocktail and homogenized using a potter. Membranes were flash frozen in liquid N2 and stored at −80° C. [33P]sphingosine 1-phosphate (3000 Ci/mmol; American Radiolabeled Chemicals, Inc.) was added to test compounds in DMSO. […] Specific binding was calculated by subtracting remaining radioactivity in the presence of 1000-fold excess of unlabeled SIP. Binding data were analyzed using the GraphPad Prism program.
After 60 min incubation at 30° C. on a shaker, plates were centrifuged for 10 min at 2000 RPM. […] Triplicate samples were averaged and expressed as % response relative to S1P activation in absence of compound (n=2).

T1 sequence (P21453 whole entry, species assumed): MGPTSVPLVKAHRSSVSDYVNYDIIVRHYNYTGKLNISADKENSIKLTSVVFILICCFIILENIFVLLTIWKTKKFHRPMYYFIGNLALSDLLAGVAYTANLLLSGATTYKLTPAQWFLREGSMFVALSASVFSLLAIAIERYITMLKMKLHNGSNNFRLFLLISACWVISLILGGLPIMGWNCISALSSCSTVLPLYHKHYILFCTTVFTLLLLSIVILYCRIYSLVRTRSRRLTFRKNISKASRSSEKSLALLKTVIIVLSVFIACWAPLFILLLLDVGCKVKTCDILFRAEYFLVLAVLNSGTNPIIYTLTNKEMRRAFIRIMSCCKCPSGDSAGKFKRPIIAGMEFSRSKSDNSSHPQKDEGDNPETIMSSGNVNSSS

Row | SMILES | EC50 [nM]
1 | Fc1ccc(F)c(-c2noc(-c3cnn(CCc4ccccc4)c3-c3ccncc3)n2)c1 [Example 99, 3-(2,5-difluorophenyl)-5-(1-phenethyl-5-(pyridin-4-yl)-1H-pyrazol-4-yl)-1,2,4-oxadiazole] | 496
2 | CC(C)(C)Cn1ncc(-c2nc(-c3ccc(CO)cc3)no2)c1-c1ccncc1 [Example 100, (4-(5-(1-neopentyl-5-(pyridin-4-yl)-1H-pyrazol-4-yl)-1,2,4-oxadiazol-3-yl)phenyl)methanol] | 377
3 | COCCc1c(-c2nc(-c3cc(F)ccc3F)no2)cnn1C1CCCCC1 [Example 103, 5-(1-cyclohexyl-5-(2-methoxyethyl)-1H-pyrazol-4-yl)-3-(2,5-difluorophenyl)-1,2,4-oxadiazole] | 35
4 | CNCc1ccc(-c2noc(-c3cnn(CC(C)(C)C)c3-c3ccncc3)n2)cc1 [Example 104, N-methyl-1-(4-(5-(1-neopentyl-5-(pyridin-4-yl)-1H-pyrazol-4-yl)-1,2,4-oxadiazol-3-yl)phenyl)methanamine] | 314
5 | CNCc1ccc(-c2noc(-c3cnn(CCc4ccccc4)c3-c3ccncc3)n2)cc1 [Example 106, N-methyl-1-(4-(5-(1-phenethyl-5-(pyridin-4-yl)-1H-pyrazol-4-yl)-1,2,4-oxadiazol-3-yl)phenyl)methanamine] | 458
6 | COCc1c(-c2nc(-c3ccc(Cn4cncn4)cc3)no2)cnn1C1CCCCC1 [Example 107, 3-(4-((1H-1,2,4-triazol-1-yl)methyl)phenyl)-5-(1-cyclohexyl-5-(methoxymethyl)-1H-pyrazol-4-yl)-1,2,4-oxadiazole] | 45
7 | COCCc1c(-c2nc(-c3cccc(C(F)(F)F)c3)no2)cnn1C1CCCCC1 [Example 108, 5-(1-cyclohexyl-5-(2-methoxyethyl)-1H-pyrazol-4-yl)-3-(3-(trifluoromethyl)phenyl)-1,2,4-oxadiazole] | 102
8 | COCc1c(-c2nc(-c3ccc(CCO)cc3)no2)cnn1C1CCCCC1 [Example 109, 2-(4-(5-(1-cyclohexyl-5-(methoxymethyl)-1H-pyrazol-4-yl)-1,2,4-oxadiazol-3-yl)phenyl)ethanol] | 312
9 | O=C(O)C1CN(Cc2ccc(-c3noc(-c4cnn(CCc5ccccc5)c4-c4ccncc4)n3)cc2)C1 [Example 110, 1-(4-(5-(1-phenethyl-5-(pyridin-4-yl)-1H-pyrazol-4-yl)-1,2,4-oxadiazol-3-yl)benzyl)azetidine-3-carboxylic acid, formate] | 40
10 | COCCc1c(-c2nc(-c3ccc(Cn4cncn4)cc3)no2)cnn1C1CCCCC1 [Example 111, 3-(4-((1H-1,2,4-triazol-1-yl)methyl)phenyl)-5-(1-cyclohexyl-5-(2-methoxyethyl)-1H-pyrazol-4-yl)-1,2,4-oxadiazole] | 29
11 | CCOc1c(-c2nc(-c3cc(F)ccc3F)no2)cnn1-c1ccccc1C [Example 112, 3-(2,5-difluorophenyl)-5-(5-ethoxy-1-o-tolyl-1H-pyrazol-4-yl)-1,2,4-oxadiazole] | 94
12 | FC(F)(F)c1cccc(-c2noc(-c3cnn(CC4CC4)c3-c3ccncc3)n2)c1 [Example 113, 5-(1-(cyclopropylmethyl)-5-(pyridin-4-yl)-1H-pyrazol-4-yl)-3-(3-(trifluoromethyl)phenyl)-1,2,4-oxadiazole] | 24
13 | COCc1c(-c2nc(-c3ccc(Cn4cccn4)cc3)no2)cnn1C1CCCCC1 [Example 114, 3-(4-((1H-pyrazol-1-yl)methyl)phenyl)-5-(1-cyclohexyl-5-(methoxymethyl)-1H-pyrazol-4-yl)-1,2,4-oxadiazole] | 94
14 | COCCc1c(-c2nc(-c3ccc(CO)cc3)no2)cnn1C1CCCCC1 [Example 115, (4-(5-(1-cyclohexyl-5-(2-methoxyethyl)-1H-pyrazol-4-yl)-1,2,4-oxadiazol-3-yl)phenyl)methanol] | 134
15 | COCc1c(-c2nc(-c3ccc4c(c3)CCNC4)no2)cnn1C1CCCCC1 [Example 116, 5-(1-cyclohexyl-5-(methoxymethyl)-1H-pyrazol-4-yl)-3-(1,2,3,4-tetrahydroisoquinolin-6-yl)-1,2,4-oxadiazole] | 86
16 | COCc1c(-c2nc(-c3ccc4c(c3)CN(CCC(=O)O)CC4)no2)cnn1C1CCCCC1 [Example 118, 3-(7-(5-(1-cyclohexyl-5-(methoxymethyl)-1H-pyrazol-4-yl)-1,2,4-oxadiazol-3-yl)-3,4-dihydroisoquinolin-2(1H)-yl)propanoic acid] | 398
17 | COCc1c(-c2nc(-c3ccc(Cn4ccnc4)cc3)no2)cnn1C1CCCCC1 [Example 119, 3-(4-((1H-imidazol-1-yl)methyl)phenyl)-5-(1-cyclohexyl-5-(methoxymethyl)-1H-pyrazol-4-yl)-1,2,4-oxadiazole] | 66
18 | COCc1c(-c2nc(-c3ccc(CNC(C)C)cc3)no2)cnn1C1CCCCC1 [Example 121, N-(4-(5-(1-cyclohexyl-5-(methoxymethyl)-1H-pyrazol-4-yl)-1,2,4-oxadiazol-3-yl)benzyl)propan-2-amine] | 40
19 | COCc1c(-c2nc(-c3ccc(CNCC(O)CO)cc3)no2)cnn1C1CCCCC1 (centres unmarked) [Example 122, 3-(4-(5-(1-cyclohexyl-5-(methoxymethyl)-1H-pyrazol-4-yl)-1,2,4-oxadiazol-3-yl)benzylamino)propane-1,2-diol] | 157
20 | COCc1c(-c2nc(-c3ccc(O)cc3)no2)cnn1C1CCCCC1 [Example 123, 4-(5-(1-cyclohexyl-5-(methoxymethyl)-1H-pyrazol-4-yl)-1,2,4-oxadiazol-3-yl)phenol] | 82
21 | COCc1c(-c2nc(-c3ccc(N)nc3)no2)cnn1C1CCCCC1 [Example 124, 5-(5-(1-cyclohexyl-5-(methoxymethyl)-1H-pyrazol-4-yl)-1,2,4-oxadiazol-3-yl)pyridin-2-amine] | 382
22 | COCc1c(-c2nc(-c3cccc(O)c3)no2)cnn1C1CCCCC1 [Example 126, 3-(5-(1-cyclohexyl-5-(methoxymethyl)-1H-pyrazol-4-yl)-1,2,4-oxadiazol-3-yl)phenol] | 168
23 | COCc1c(-c2nc(-c3ccc(CCN(C)C)cc3)no2)cnn1C1CCCCC1 [Example 127, 2-(4-(5-(1-cyclohexyl-5-(methoxymethyl)-1H-pyrazol-4-yl)-1,2,4-oxadiazol-3-yl)phenyl)-N,N-dimethylethanamine] | 172
24 | COCc1c(-c2nc(-c3ccc(CCNC(C)C)cc3)no2)cnn1C1CCCCC1 [Example 128, N-(4-(5-(1-cyclohexyl-5-(methoxymethyl)-1H-pyrazol-4-yl)-1,2,4-oxadiazol-3-yl)phenethyl)propan-2-amine formate] | 158
25 | COCc1c(-c2nc(-c3ccc(CCN4CCC(C(=O)OC)CC4)cc3)no2)cnn1C1CCCCC1 [Example 129, Methyl 1-(4-(5-(1-cyclohexyl-5-(methoxymethyl)-1H-pyrazol-4-yl)-1,2,4-oxadiazol-3-yl)phenethyl)piperidine-4-carboxylate] | 438
26 | COCc1c(-c2nc(-c3ccc(CCN4CCC(C(=O)O)CC4)cc3)no2)cnn1C1CCCCC1 [Example 130, 1-(4-(5-(1-cyclohexyl-5-(methoxymethyl)-1H-pyrazol-4-yl)-1,2,4-oxadiazol-3-yl)phenethyl)piperidine-4-carboxylic acid] | 36
27 | COCc1c(-c2nc(-c3ccc(OC4CCNC4)cc3)no2)cnn1C1CCCCC1 (centres unmarked) [Example 131, 5-(1-cyclohexyl-5-(methoxymethyl)-1H-pyrazol-4-yl)-3-(4-(pyrrolidin-3-yloxy)phenyl)-1,2,4-oxadiazole] | 181
28 | O=C(O)C1CCN(Cc2ccc(-c3noc(-c4cnn(C5CCCCC5)c4C4CCOCC4)n3)cc2)CC1 [Example 132, 1-(4-(5-(1-cyclohexyl-5-(tetrahydro-2H-pyran-4-yl)-1H-pyrazol-4-yl)-1,2,4-oxadiazol-3-yl)benzyl)piperidine-4-carboxylic acid] | 18

Target: T1, S1P1
Experiment: Receptor binding assay, [33P]sphingosine 1-phosphate, membranes from CHO cells expressing S1P1
Conditions: CHO cell membranes, 25 pM [33P]sphingosine 1-phosphate
Experimental: Receptor binding assay: Membranes were prepared from CHO cells expressing S1P1 or S1P3 for use in ligand and […] binding studies. Cells were suspended in 50 mM TRIS, pH 7.4, 2 mM EDTA, 250 mM Sucrose (buffer A) and 1× Complete protease inhibitor cocktail (Roche), and disrupted at 4° C. by N2 decompression using a cell disruption bomb (Parr Instrument). Following centrifugation at 1000 RPM for 10 min at 4° C., the supernatant was suspended in buffer A and centrifuged again at 19000 RPM for 60 min at 4° C. The pellet was then suspended in 10 mM HEPES, pH 7.4, 1 mM EDTA, 250 mM Sucrose (Buffer B), and 1× Complete EDTA-free protease inhibitor cocktail and homogenized using a potter. Membranes were flash frozen in liquid N2 and stored at −80° C. [33P]sphingosine 1-phosphate (3000 Ci/mmol; American Radiolabeled Chemicals, Inc.) was added to test compounds in DMSO. Membranes and WGA SPA beads (GE Healthcare) were added to give a final volume of 100 μl in 96-well plates with assay concentrations of 25 pM or 10 pM [33P]sphingosine 1-phosphate (respectively for S1P1 or S1P3), 50 mM HEPES, pH 7.5, 5 mM MgCl2, 100 mM NaCl, 0.4% fatty acid-free BSA, 1-5 μg/well of proteins and 100 μg/well of WGA SPA beads. Binding was performed for 60 min at RT on a shaker and bound radioactivity was measured on a PerkinElmer 1450 MicroBeta counter. Specific binding was calculated by subtracting remaining radioactivity in the presence of 1000-fold excess of unlabeled SIP. Binding data were analyzed using the GraphPad Prism program.

Row | SMILES | Ki [nM]
29 | COCc1c(-c2nc(-c3ccc(/C=C/C(=O)O)cc3)no2)cnn1C1CCCCC1 [Example 98, (E)-3-(4-(5-(1-cyclohexyl-5-(methoxymethyl)-1H-pyrazol-4-yl)-1,2,4-oxadiazol-3-yl)phenyl)acrylic acid] | 409
